Test results published in PubChem BioAssay AID2060510 (Molecular Pharmacology Branch, DTP, NCI, 2025).

System: 439559-082-T-J2-PDC spheroids viability
Assay: Anticancer human tumor 439559-082-T-J2-PDC patient-derived colon adenocarcinoma cell line growth inhibition [GQUAD]
Details: for IC50: curve of first compound; for viability, T/C: stronger effect = lower value
Source text: DNA G-quadruplex Stabilizer Agents in Combinations in Complex Spheroids
A high-throughput screen of multi-cell type tumor spheroids was designed to identify active combinations of DNA G-quadruplex stabilizer agents and targeted small molecules. Complex spheroids include a stromal component modeled by human endothelial cells (HUVEC) and fibroblasts modeled by human mesenchymal stem cells (MSCs). The concentration ranges selected for each drug and investigational agent were based upon clinically achievable concentrations if the clinical Cmax of the agent was known.
Compounds. The drugs and investigational agents: pidnarulex (CX-5461; NSC782164), APTO-253 (NSC789042), BRACO-19 (NSC847499), peposertib (NSC802822), ceralasertib (NSC780249), elimusertib (NSC800525), camonsertib (NSC841442), AZD-1390 (NSC803789), olaparib (NSC753686), talazoparib (NSC767125), ART-558 (NSC835418), sotorasib (NSC818433), MRTX-1133 (NSC836407), SN-38 (NSC673596), topotecan (NSC609699), etoposide (NSC141540), doxorubicin (NSC123127), gemcitabine (NSC613327), 5-fluorouracil (NSC19893), paclitaxel (NSC125973), vemurafenib (NSC761431), panobinostat (NSC761190), R-306465 (JNJ-16241199; NSC773264), adavosertib (NSC754352), TP-3654 (NSC805149), carboplatin (NSC241240), KSQ-4279 (NSC840948), and staurosporine (NSC755774) were obtained from the National Cancer Institute (NCI) Developmental Therapeutics Program Chemical Repository (34). The FDA-approved anticancer drug set is available from the NCI Developmental Therapeutics Program. […] The stock solutions were prepared in dimethyl sulfoxide (DMSO, Sigma-Aldrich, St. Louis, MO, cat. D2650) at 800-fold the tested concentration and stored at -70 degrees C prior to their use. All drugs and investigational agents were tested over a range starting from a high concentration at or near the clinical Cmax and decreasing in half-log increments. If the clinical Cmax for an agent had not been determined, the highest concentration tested was 10 microM.
2.3 Cell Culture. All cells were maintained in an incubator at 37 degrees C and 5% CO2 with 95% humidity. The PDC lines were cultured according to standard operating procedures established by the NCI PDMR. All PDCs were thawed and cultured in Matrigel-coated flasks prepared with a working solution of 1X Ham's F-12 nutrient mix, without supplementation (Invitrogen, cat. 11765054), 100 U/mL penicillin-streptomycin (Invitrogen, cat. 15140122), and 2.5% Matrigel (Corning Inc., cat. 354248) for the first three passages. The 857933-349-R-J2-PDC line was cultured in 6C/Colon 1B media, which includes advanced DMEM/F-12 (Thermo Fisher Scientific, cat. 12634028), 10 mM HEPES (Thermo Fisher Scientific, cat. 15630080), 1X GlutaMAX supplement (Thermo Fisher Scientific, cat. 35050061), 0.1 mg/mL primocin (InvivoGen, cat. ant-pm-2), 10% defined fetal bovine serum, heat inactivated (HyClone Laboratories Inc., cat. SH30070.03HI), 50% L-WRN conditioned media (ATCC, cat. CRL-3276), 1.25 mM N-Acetyl-L-cysteine (Sigma-Aldrich, cat. A9165), 10 mM nicotinamide (Sigma-Aldrich, cat. N0636), 1X B-27 supplement (Thermo Fisher Scientific, cat. 17504044), 1X N-2 supplement (Thermo Fisher Scientific, cat. 17502048), 10 microM Y-27632 dihydrochloride (Tocris Bioscience, cat. 1254), and 50 ng/mL human EGF recombinant protein (Thermo Fisher Scientific, cat. PHG0311). The 485176-168-R4-J1-PDC line was cultured in Panc media, which includes all 6C/Colon 1B media components plus 100 ng/mL human FGF-10 (Thermo Fisher Scientific, cat. 100-26), 500 nM SB-431542 (Selleckchem, cat. S1067), and gastrin (Tocris, cat. 3006).
[…]
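Note: spheroids exposed to the agents for 7 days before readout.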
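Throughout, for viability, T/C: percent of luminescence signal in DMSO vehicle wells taken as 100% viability.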

Q: How did the IC50 (second compound 0.0316 µM) turn out when CC1COCCN1c1cc(C2(S(C)(=N)=O)CC2)nc(-c2ccnc3[nH]ccc23)n1 (configuration not stated) + Cc1cnc(CNC(=O)c2c(=O)c3ccc(N4CCCN(C)CC4)nc3n3c2sc2ccccc23)cn1 was run?
A: > 10 µM

Q: And the IC50 (second compound 0.1 µM)?
A: > 10 µM

Q: What about the IC50 (second compound 0.316 µM) of the same compound?
A: > 10 µM

Q: What about the IC50 (second compound 1 µM) of the same compound?
A: > 10 µM

Q: And the IC50 (second compound 3.16 µM)?
A: > 10 µM

Q: What about the IC50 (second compound 10 µM) of the same compound?
A: > 10 µM

Q: And the viability, T/C (second compound 0.0316 µM, first compound 0.0316 µM)?
A: 99.5%

Q: What about the viability, T/C (second compound 0.0316 µM, first compound 0.1 µM) of the same compound?
A: 86.3%

Q: What about the viability, T/C (second compound 0.0316 µM, first compound 0.316 µM) of the same compound?
A: 93.8%

Q: And the viability, T/C (second compound 0.0316 µM, first compound 1 µM)?
A: 89.6%

Q: What about the viability, T/C (second compound 0.0316 µM, first compound 3.16 µM) of the same compound?
A: 90.9%

Q: And the viability, T/C (second compound 0.0316 µM, first compound 10 µM)?
A: 69.9%

Q: What about the viability, T/C (second compound 0.1 µM, first compound 0.0316 µM) of the same compound?
A: 100%

Q: What about the viability, T/C (second compound 0.1 µM, first compound 0.1 µM) of the same compound?
A: 94.4%

Q: What about the viability, T/C (second compound 0.1 µM, first compound 0.316 µM) of the same compound?
A: 86.4%

Q: And the viability, T/C (second compound 0.1 µM, first compound 1 µM)?
A: 85.5%

Q: What about the viability, T/C (second compound 0.1 µM, first compound 3.16 µM) of the same compound?
A: 86.5%

Q: What about the viability, T/C (second compound 0.1 µM, first compound 10 µM) of the same compound?
A: 61.8%

Q: And the viability, T/C (second compound 0.316 µM, first compound 0.0316 µM)?
A: 80.3%

Q: And the viability, T/C (second compound 0.316 µM, first compound 0.1 µM)?
A: 78.3%

Q: And the viability, T/C (second compound 0.316 µM, first compound 0.316 µM)?
A: 80.8%

Q: And the viability, T/C (second compound 0.316 µM, first compound 1 µM)?
A: 81.5%

Q: And the viability, T/C (second compound 0.316 µM, first compound 3.16 µM)?
A: 79.1%

Q: And the viability, T/C (second compound 0.316 µM, first compound 10 µM)?
A: 60.9%

Q: What about the viability, T/C (second compound 1 µM, first compound 0.0316 µM) of the same compound?
A: 76.1%

Q: What about the viability, T/C (second compound 1 µM, first compound 0.1 µM) of the same compound?
A: 65.2%

Q: What about the viability, T/C (second compound 1 µM, first compound 0.316 µM) of the same compound?
A: 78.2%

Q: And the viability, T/C (second compound 1 µM, first compound 1 µM)?
A: 75.5%

Q: And the viability, T/C (second compound 1 µM, first compound 3.16 µM)?
A: 75.8%

Q: What about the viability, T/C (second compound 1 µM, first compound 10 µM) of the same compound?
A: 65.6%

Q: What about the viability, T/C (second compound 3.16 µM, first compound 0.0316 µM) of the same compound?
A: 62%

Q: What about the viability, T/C (second compound 3.16 µM, first compound 0.1 µM) of the same compound?
A: 74.5%

Q: What about the viability, T/C (second compound 3.16 µM, first compound 0.316 µM) of the same compound?
A: 66.4%

Q: What about the viability, T/C (second compound 3.16 µM, first compound 1 µM) of the same compound?
A: 71.3%

Q: What about the viability, T/C (second compound 3.16 µM, first compound 3.16 µM) of the same compound?
A: 75.3%

Q: What about the viability, T/C (second compound 3.16 µM, first compound 10 µM) of the same compound?
A: 55.7%

Q: And the viability, T/C (second compound 10 µM, first compound 0.0316 µM)?
A: 61.3%

Q: What about the viability, T/C (second compound 10 µM, first compound 0.1 µM) of the same compound?
A: 59.1%

Q: And the viability, T/C (second compound 10 µM, first compound 0.316 µM)?
A: 66.8%

Q: What about the viability, T/C (second compound 10 µM, first compound 1 µM) of the same compound?
A: 60.8%

Q: What about the viability, T/C (second compound 10 µM, first compound 3.16 µM) of the same compound?
A: 61.6%

Q: And the viability, T/C (second compound 10 µM, first compound 10 µM)?
A: 49.2%
